Measured values as given in ChEMBL document CHEMBL1149826, “Chemical constituents and diversity of Ligularia lankongensis in Yunnan Province of China” (2008).
The source made the active and inactive calls. The rule behind the calls is not given here.

Test system: Bacillus subtilis
Assay: Antibacterial activity against Bacillus subtilis PCI219 assessed as inhibition zone diameter at […] after 24 hrs by paper disk diffusion assay
Type: functional

Row | Compound | zone of inhibition at 10 mg/kg (PCI219, 24 h, read-out: IZ) [mm] | Activity
1 | CC[C@H]1OC(=O)[C@H](C)[C@@H](O[C@H]2C[C@@](C)(OC)[C@@H](O)[C@H](C)O2)[C@H](C)[C@@H](O[C@@H]2O[C@H](C)C[C@H](N(C)C)[C@H]2O)[C@](C)(O)C[C@@H](C)C(=O)[C@H](C)[C@@H](O)[C@]1(C)O [ERYTHROMYCIN] | 31 | –
2 | C=C(C(CC1OC1(C)C)OC(=O)/C(C)=C\C)[C@H]1[C@H](OC(=O)/C(C)=C\C)[C@H]2O[C@@]2(C)[C@@H](O)[C@H]1OC(=O)/C(C)=C\C (some centres not stated) | – | Active
